Starred links: 1 amine or outer side, 2 acyl side, 3 side chain; linkers in the order of their positions; H or OH if unused. Non-standard residues stand in square brackets, D forms with d. Residues, ends and D or L forms follow the SMILES beside them. Groups on a side chain read outwards from the residue. *: point of attachment. C18 diacid = O=C(O)CCCCCCCCCCCCCCCCC(=O)*; γGlu = O=C(O)[C@H](CCC(=O)[*:2])N[*:1]; AEEA = NCCOCCOCC(=O)O; Aib = CC(C)(N)C(=O)O
How the values were obtained:
[1] = Assay (III) ThT fibrillation assay for physical stability; format: physicochemical; details: 250 μM in 10 mM HEPES buffer, 37° C., shaking 960 rpm
Summary of the method: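 Glucagon derivative at 250 μM in 10 mM HEPES pH 7.5 with 1 μM ThT was incubated at 37 °C under 960 rpm orbital shaking. Fluorescence (ex 444/em 485 nm) was read every 20 min and fitted for lag time (t0−2τ) and kapp (1/τ). Recovery was soluble peptide after centrifugation/filtration, by RP-HPLC, as percent of initial.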

human GLP-1 receptor = target: T1, human GLP-1 receptor (Homo sapiens, UniProt P43220); experiment: Assay (I)(a) GLP-1 receptor activation, CRE luciferase reporter gene assay in BHK cells; format: cell-based; details: without presence of serum albumin; read-out: GLP-1R EC50 (pM) [Assay (I)(a)]
T1 construct: expressed in transfected cells; host or cells: membranes of BHK cells (parent BHKTS13), clone FCW467-12A
Summary of the method: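 Stable BHK clone expressing human GLP-1 receptor with CRE-driven firefly luciferase, 5×10EE3 cells/well in medium with 2% ovalbumin and 0.2% Pluronic F-68. Compounds at 1×10EE-13 to 1×10EE-6 M final, 3 h at 37° C.; luminescence read, EC50 (pM) from four-parameter fit.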

T1 sequence (P43220 24-463): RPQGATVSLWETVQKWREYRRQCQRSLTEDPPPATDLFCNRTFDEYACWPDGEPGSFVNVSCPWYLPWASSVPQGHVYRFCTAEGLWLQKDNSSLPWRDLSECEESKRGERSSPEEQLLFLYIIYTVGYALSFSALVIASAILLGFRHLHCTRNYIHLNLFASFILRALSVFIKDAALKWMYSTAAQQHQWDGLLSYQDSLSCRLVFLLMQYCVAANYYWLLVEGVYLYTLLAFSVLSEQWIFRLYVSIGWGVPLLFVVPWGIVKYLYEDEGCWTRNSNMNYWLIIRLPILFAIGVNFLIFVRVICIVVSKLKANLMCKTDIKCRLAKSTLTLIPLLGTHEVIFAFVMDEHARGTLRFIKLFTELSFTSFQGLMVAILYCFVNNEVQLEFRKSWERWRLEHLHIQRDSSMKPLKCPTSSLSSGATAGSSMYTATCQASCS

With `CC[C@H](C)[C@H](NC(=O)[C@H](CC(C)C)NC(=O)[C@H](Cc1c[nH]c2ccccc12)NC(=O)[C@H](CCC(N)=O)NC(=O)[C@@H](NC(=O)[C@H](Cc1ccccc1)NC(=O)[C@H](CC(=O)O)NC(=O)[C@H](CCCNC(=N)N)NC(=O)[C@H](C)NC(=O)[C@H](CCCNC(=N)N)NC(=O)[C@H](CCCNC(=N)N)NC(=O)[C@H](CO)NC(=O)[C@H](CCC(=O)O)NC(=O)[C@H](CC(C)C)NC(=O)[C@H](Cc1ccc(O)cc1)NC(=O)[C@H](CCCNC(=N)N)NC(=O)[C@H](CO)NC(=O)[C@H](Cc1ccc(O)cc1)NC(=O)[C@H](CC(=O)O)NC(=O)[C@H](CO)NC(=O)[C@@H](NC(=O)[C@H](Cc1ccccc1)NC(=O)[C@@H](NC(=O)CNC(=O)[C@H](CCC(N)=O)NC(=O)C(C)(C)NC(=O)[C@@H](N)Cc1c[nH]cn1)[C@@H](C)O)[C@@H](C)O)C(C)C)C(=O)N[C@@H](CCCCNC(=O)CC[C@H](NC(=O)COCCOCCNC(=O)CC[C@H](NC(=O)COCCOCCNC(=O)CC[C@H](NC(=O)COCCOCCNC(=O)CC[C@H](NC(=O)CC[C@H](NC(=O)CCCCCCCCCCCCCCCCC(=O)O)C(=O)O)C(=O)O)C(=O)O)C(=O)O)C(=O)O)C(=O)N[C@H](C(N)=O)[C@@H](C)O` [Chem. 37, N^28-[(4S)-4-carboxy-4-[[2-[2-[2-[[(4S)-4-carboxy-4-[[2-[2-[2-[[(4S)-4-carboxy-4-[[2-[2-[2-[[(4S)-4-carboxy-4-[[(4S)-4-carboxy-4-(17-carboxyheptadecanoylamino)butanoyl]amino]butanoyl]amino]ethoxy]ethoxy]acetyl]amino]butanoyl]amino]ethoxy]ethoxy]acetyl]amino]butanoyl]amino]ethoxy]ethoxy]acetyl]amino]butanoyl]-[Aib2,Arg12,Glu15,Arg20,Ile27,Lys28]-Glucagon amide] (H-H[Aib]QGTFTSDYSRYLESRRARDFVQWLIK([γGlu-AEEA-γGlu-AEEA-γGlu-AEEA-γGlu-γGlu-C18 diacid])T-NH2; N-terminus assumed) the “ThT Assay Lag time (h) [Assay (III), pH 7.5]” value [1] was 6.3 h and the EC50 (human GLP-1 receptor) was 4 pM.

From patent publication US10570184B2, “GLP-1/glucagon receptor co-agonists for medical use” (Novo Nordisk A/S, priority 2014, dated 2020)
